# In US11174251B2, “Compositions and methods for inhibition of the JAK pathway” (Rigel Pharmaceuticals, Inc., priority 2010, dated 2021):
# Structures can show the parent of a compound that is named as a salt.
# Target: T1, JAK3 (Homo sapiens, UniProt P52333)
# T1 construct: The Ramos B-cell line was acquired from ATCC (ATCC Catalog No. CRL-1596); host or cells: Ramos B-cell line (human)
# T1 sequence (P52333 1-1124): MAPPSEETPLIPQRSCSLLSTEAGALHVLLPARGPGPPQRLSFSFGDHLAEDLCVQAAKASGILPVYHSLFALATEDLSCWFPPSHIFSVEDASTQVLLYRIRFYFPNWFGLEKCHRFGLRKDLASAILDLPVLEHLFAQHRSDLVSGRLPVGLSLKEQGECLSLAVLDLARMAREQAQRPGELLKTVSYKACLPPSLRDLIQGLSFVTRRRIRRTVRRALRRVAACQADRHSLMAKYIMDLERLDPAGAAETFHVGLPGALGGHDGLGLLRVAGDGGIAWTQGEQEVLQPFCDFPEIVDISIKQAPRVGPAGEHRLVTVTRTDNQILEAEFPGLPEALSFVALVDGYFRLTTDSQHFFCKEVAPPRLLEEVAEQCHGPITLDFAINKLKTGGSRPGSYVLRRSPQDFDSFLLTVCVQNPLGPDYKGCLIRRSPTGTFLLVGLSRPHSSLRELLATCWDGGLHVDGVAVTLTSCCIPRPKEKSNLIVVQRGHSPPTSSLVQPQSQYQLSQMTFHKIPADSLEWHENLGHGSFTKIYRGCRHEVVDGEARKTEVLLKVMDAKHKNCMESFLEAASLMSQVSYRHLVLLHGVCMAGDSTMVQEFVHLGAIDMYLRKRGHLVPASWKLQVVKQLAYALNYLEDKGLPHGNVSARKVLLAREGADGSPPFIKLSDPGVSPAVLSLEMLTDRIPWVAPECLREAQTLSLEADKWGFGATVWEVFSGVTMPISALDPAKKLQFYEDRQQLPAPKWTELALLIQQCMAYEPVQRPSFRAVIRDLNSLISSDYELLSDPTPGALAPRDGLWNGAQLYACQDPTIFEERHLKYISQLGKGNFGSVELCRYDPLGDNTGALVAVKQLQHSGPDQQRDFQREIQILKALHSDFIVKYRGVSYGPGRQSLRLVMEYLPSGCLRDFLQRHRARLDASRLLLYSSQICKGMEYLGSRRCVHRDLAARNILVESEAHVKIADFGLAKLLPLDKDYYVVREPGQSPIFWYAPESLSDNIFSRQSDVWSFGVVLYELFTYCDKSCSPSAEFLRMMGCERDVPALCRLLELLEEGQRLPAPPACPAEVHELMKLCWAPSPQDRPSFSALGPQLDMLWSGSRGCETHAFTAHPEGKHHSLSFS
# Experiment: Assay for CD23 expression on Ramos B-cells stimulated by IL-4 (Table IV: ability to inhibit JAK3 activity)
# Type: cell-based
# Conditions: tested under conditions described in Example 3 (so in the source)
# Text: One means of assaying for such inhibition is detection of the effect of the 2,4-pyrimidinediamine compounds on the upregulation of downstream gene products. In the Ramos/IL4 assay, B-cells are stimulated with the cytokine Interleukin-4 (IL-4) leading to the activation of the JAK/Stat pathway through phosphorylation of the JAK family kinases, JAK1 and JAK3, which in turn phosphorylate and activate the transcription factor Stat-6. […] To study the effect of inhibitors (for example, the 2,4-substituted pyrimindinediamine compounds described herein) on the JAK1 and JAK3 kinases, human Ramos B cells are stimulated with human IL-4. 20 to 24 hours post stimulation, cells are stained for upregulation of CD23 and analyzed using FACS.
# B-cells stimulated with cytokine Interleukin-4 (IL-4) activate the JAK/Stat pathway through phosphorylation of the JAK family kinases, JAK-1 and JAK-3, which in turn phosphorylate and activate the transcription factor Stat-6. […] To study the effect of inhibitors on the JAK family kinases, human Ramos B cells were stimulated with human IL-4 and the surface expression of CD23 was measured.
# The day before the experiment, Ramos B-cells were diluted to 3.5×10^5 cells/mL to ensure that they were in a logarithmic growth phase.
# Cells were spun down and suspended in RPMI with 5% serum. 5×10^4 cells were used per point in a 96-well tissue culture plate. Cells were pre-incubated with compound or DMSO (Sigma-Aldrich, St. Louis, Mo., Cat No. D2650) vehicle control for 1 hour in a 37° C. incubator. Cells were then stimulated with IL-4 (Peprotech Inc., Rocky Hill, N.J., Cat No. 200-04) for a final concentration of 50 units/mL for 20-24 hours. […] Detection was performed using a BD LSR I System Flow Cytometer, purchased from Becton Dickinson Biosciences of San Jose, Calif.
# The compound designations in Table IV are consistent with those of Tables I-II above.
row,Compound,IC50 [nM]
1,"Cc1cc(Nc2ncc(F)c(Nc3cc(F)c4oc(=O)[nH]c4c3)n2)cc(C)c1F [Compound I-189, 5-(2-(4-fluoro-3,5-dimethylphenylamino)-5-fluoropyrimidin-4-ylamino)-7-fluorobenzo[d]oxazol-2(3H)-one trifluoroacetate salt]",< 500
2,"Cc1cnc(Nc2ccc3c(c2)COC3)nc1Nc1ccc2oc(=O)[nH]c2c1 [II-9, N2-(1,3-dihydro-isobenzofuran-5-yl)-5-methyl-N4-(2-oxo-2,3-dihydro-1,3-benzoxazol-5-yl)-2,4-pyrimidinediamine]",< 500
3,"CCNC(=O)c1ccc(Nc2ncc(F)c(Nc3ccc4oc(=O)[nH]c4c3)n2)cc1 [Compound I-162, N-ethyl-4-(5-fluoro-4-(2-oxo-2,3-dihydrobenzo[d]oxazol-5-ylamino)pyrimidin-2-ylamino)benzamide formate salt]",< 500
4,"COc1cc(Nc2ncc(F)c(Nc3ccc4oc(=O)[nH]c4c3)n2)ccc1C(=O)NC1CCC1 [Compound I-164, N-cyclobutyl-4-(5-fluoro-4-(2-oxo-2,3-dihydrobenzo[d]oxazol-5-ylamino)pyrimidin-2-ylamino)-2-methoxybenzamide formate salt]",< 500
5,"O=C1CCc2cc(Nc3ncc(F)c(Nc4ccc5oc(=O)[nH]c5c4)n3)ccc2N1 [II-26, 6-(4-(2,3-dihydro-2-oxobenzo[d]oxazol-5-ylamino)-5-fluoropyrimidin-2-ylamino)-3,4-dihydroquinolin-2(1H)-one trifluoroacetate salt]",< 500
6,"CC(=O)c1ccc(Nc2ncc(F)c(Nc3ccc4oc(=O)[nH]c4c3)n2)cc1 [Compound I-157, 5-(2-(4-acetylphenylamino)-5-fluoropyrimidin-4-ylamino)benzo[d]oxazol-2(3H)-one formate salt]",< 500
7,"Cc1cc(Nc2ncc(C(=O)O)c(Nc3ccc4oc(=O)[nH]c4c3)n2)cc(C)c1C [Compound I-49, 4-(2-Oxo-2,3-dihydro-benzooxazol-5-ylamino)-2-(3,4,5-trimethyl-phenylamino)-pyrimidine-5-carboxylic acid trifluoroacetate salt]",> 10000
8,"COc1cc(Nc2ncc(F)c(Nc3cc(F)c4oc(=O)[nH]c4c3)n2)cc(C)c1F [Compound I-191, 5-(2-(4-fluoro-3-methoxy-5-methylphenylamino)-5-fluoropyrimidin-4-ylamino)-7-fluorobenzo[d]oxazol-2(3H)-one trifluoroacetate salt]",< 500
9,"COc1cccc(Nc2ncc(C)c(Nc3ccc4oc(=O)[nH]c4c3)n2)n1 [II-20, N2-(6-methoxypyridin-2-yl)-5-methyl-N4-(2-oxo-2,3-dihydro-1,3-benzoxazol-5-yl)-2,4-pyrimidinediamine]",< 500
10,"O=c1[nH]c2cc(Nc3ccnc(Nc4cc(F)cc(F)c4)n3)ccc2o1 [Compound I-13, 5-(2-(3,5-difluorophenylamino)pyrimidin-4-ylamino)benzo[d]oxazol-2(3H)-one trifluoroacetate salt]",500 to 5000
11,"Cc1cnc(Nc2cc(C)c(C)c(C)c2)nc1Nc1ccc2oc(=O)n(COP(=O)(O)O)c2c1 [Compound I-130, 5-methyl-N4-[3-(phosphonooxy)methyl-2-oxo-2,3-dihydro-1,3-benzoxazol-5-yl]-N2-(3,4,5-trimethyl)phenyl-2,4-pyrimidinediamine arginine salt]",< 500
12,"COc1cc(Nc2ncc(C)c(Nc3ccc4oc(=O)n(COP(=O)(O)O)c4c3)n2)cc(C)c1C [Compound I-115, Disodium (5-(2-(3-methoxy-4,5-dimethylphenylamino)-5-methylpyrimidin-4-ylamino)-2-oxobenzo[d]oxazol-3(2H)-yl)methyl phosphate]",500 to 5000
13,"Cc1ccc(Nc2ncc([N+](=O)[O-])c(Nc3ccc4oc(=O)[nH]c4c3)n2)cc1N(C)C [Compound I-45, 5-(2-(3-(dimethylamino)-4-methylphenylamino)-5-nitropyrimidin-4-ylamino)benzo[d]oxazol-2(3H)-one trifluoroacetate salt]",> 10000
14,"O=c1[nH]c2cc(Nc3nc(Nc4ccc(F)c(-c5ccncc5)c4)ncc3F)ccc2o1 [Compound I-205, 5-(2-(4-fluoro-3-(pyridin-4-yl)phenylamino)-5-fluoropyrimidin-4-ylamino)benzo[d]oxazol-2(3H)-one]",< 500
15,"COc1cc(Nc2ncc(C)c(Nc3cc(F)c4oc(=O)[nH]c4c3)n2)cc(C)c1C [Compound I-111, 5-(2-(3-methoxy-4,5-dimethylphenylamino)-5-methylpyrimidin-4-ylamino)-7-fluorobenzo[d]oxazol-2(3H)-one trifluoroacetate trifluoroacetate salt]",< 500
16,"Cc1cnc(Nc2cc(C)c(C)c(C)c2)nc1Nc1cc(/C=C/CCl)c2oc(=O)[nH]c2c1 [Compound I-96, 5-(2-(3,4,5-trimethylphenylamino)-5-methylpyrimidin-4-ylamino)-7-((E)-3-chloroprop-1-enyl)benzo[d]oxazol-2(3H)-one]",500 to 5000
17,"O=c1[nH]c2cc(Nc3nc(Nc4ccc5ccccc5c4)ncc3[N+](=O)[O-])ccc2o1 [II-6, 5-(2-(naphthalen-2-ylamino)-5-nitropyrimidin-4-ylamino)benzo[d]oxazol-2(3H)-one trifluoroacetate salt]",> 10000
18,"Cc1cc(C)cc(Nc2ncc(F)c(Nc3cc(F)c4oc(=O)[nH]c4c3)n2)c1 [Compound I-187, 5-(2-(3,5-dimethylphenylamino)-5-fluoropyrimidin-4-ylamino)-7-fluorobenzo[d]oxazol-2(3H)-one trifluoroacetate salt]",< 500
19,"COc1cc(Nc2ncc(F)c(Nc3ccc4oc(=O)[nH]c4c3)n2)cc(C)c1OC [Compound I-182, 5-(2-(3,4-dimethoxy-5-methylphenylamino)-5-fluoropyrimidin-4-ylamino)benzo[d]oxazol-2(3H)-one trifluoroacetate salt]",< 500
20,"COC(=O)c1cnc(Nc2cc(C)c(C)c(C)c2)nc1Nc1ccc2oc(=O)[nH]c2c1 [Compound I-40, 4-(2-Oxo-2,3-dihydro-benzooxazol-5-ylamino)-2-(3,4,5-trimethyl-phenylamino)-pyrimidine-5-carboxylic acid methyl ester trifluoroacetate salt]",< 500
21,"Cc1ccc(Nc2ncc(F)c(Nc3ccc4oc(=O)[nH]c4c3)n2)cc1C#N [Compound I-1, 5-(5-fluoro-4-(2-oxo-2,3-dihydrobenzo[d]oxazol-5-ylamino)pyrimidin-2-ylamino)-2-methylbenzonitrile formate salt]",< 500
22,"COc1ccc(F)c(Nc2ncc(F)c(Nc3ccc4oc(=O)[nH]c4c3)n2)c1 [Compound I-119, 5-(5-fluoro-2-(2-fluoro-5-methoxyphenylamino)pyrimidin-4-ylamino)benzo[d]oxazol-2(3H)-one]",5000 to 10000
23,"COc1cc(Nc2ncc(C)c(Nc3ccc4oc(=O)[nH]c4c3)n2)c(F)cc1C [Compound I-122, 5-(2-(2-fluoro-5-methoxy-4-methylphenylamino)-5-methylpyrimidin-4-ylamino)benzo[d]oxazol-2(3H)-one trifluoroacetate salt]",500 to 5000
